# Results from patent US7618960B2, “Morpholine type cinnamide compound” (Eisai R&D Management Co., Ltd., priority 2005, dated 2009).
# System: Aβ42 production
# Assay: Quantification of Aβ peptide in culture of neurons from rat fetus brain (Aβ ELISA)
# Format: cell-based
# Conditions: Neuron, 72 h; rat primary neuronal culture (cerebral cortex, embryonic day 18 Wistar rats); medium collected three days after addition of compound; Aβx-42 ELISA; read-out: Activity for reducing Aβ42 production IC50
# Method: Quantification of Aβ Peptide in Culture of Neurons from Rat Fetus Brain
# (1) Rat Primary Neuronal Culture
# Primary neuronal cultures were prepared from the cerebral cortex of embryonic day 18 Wistar rats (Charles River Japan, Yokohama, Japan). Specifically, the embryos were aseptically removed from pregnant rats under ether anesthesia. The brain was isolated from the embryo and immersed in an ice-cold L-15 medium (Invitrogen Corp. Cat #11415-064, Carlsbad, Calif., USA, or SIGMA L1518, for example). The cerebral cortex was collected from the isolated brain under a stereoscopic microscope. The cerebral cortex fragments collected were enzymatically treated in an enzyme solution containing 0.25% trypsin (Invitrogen Corp. Cat #15050-065, Carlsbad, Calif., USA) and 0.01% DNase (Sigma D5025, St. Louis, Mo., USA) at 37° C. for 30 minutes to disperse the cells. Here, the enzymatic reaction was stopped by adding inactivated horse serum to the solution. The enzymatically treated solution was centrifuged at 1,500 rpm for five minutes to remove the supernatant. 5 to 10 ml of a medium was added to the resulting cell mass. Neurobasal medium (Invitrogen Corp. Cat #21103-049, Carlsbad, Calif., USA) supplemented with 2% B27 supplement (Invitrogen Corp. Cat #17504-044, Carlsbad, Calif., USA), 25 μM 2-mercaptoethanol (2-ME, WAKO Cat #139-06861, Osaka, Japan), 0.5 mM L-glutamine (Invitrogen Corp. Cat #25030-081, Carlsbad, Calif., USA), and Antibiotics-Antimycotics (Invitrogen Corp. Cat #15240-062, Carlsbad, Calif., USA) was used as the medium (Neurobasal/B27/2-ME). However, the above Neurobasal medium not supplemented with 2-ME (Neurobasal/B27) was used for the assay. The cells were redispersed by mild pipetting of the cell mass to which the medium was added. The cell dispersion was filtered through a 40-μm nylon mesh (Cell Strainer, Cat #35-2340, Becton Dickinson Labware, Franklin Lakes, N.J., USA) to remove the remaining cell mass, and thus a neuronal cell suspension was obtained. The neuronal cell suspension was diluted with the medium and then plated in a volume of 100 μl/well at an initial cell density of 5×10^5 cells/cm^2 in a 96-well polystyrene culture plate pre-coated with poly-L or D-lysine (Falcon Cat #35-3075, Becton Dickinson Labware, Franklin Lakes, N.J., USA coated with poly-L-lysine using the method shown below, or BIOCOAT™ cell environments Poly-D-lysine cell ware 96-well plate, Cat #35-6461, Becton Dickinson Labware, Franklin Lakes, N.J., USA). Poly-L-lysine coating was carried out as follows. 100 μg/ml of a poly-L-lysine (SIGMA P2636, St. Louis, Mo., USA) solution was aseptically prepared with a 0.15 M borate buffer (pH 8.5). 100 μl/well of the solution was added to the 96-well polystyrene culture plate and incubated at room temperature for one or more hours or at 4° C. overnight or longer. The coated 96-well polystyrene culture plate was washed with sterile water four or more times, and then dried or rinsed with, for example, sterile PBS or medium, and used for cell plating. The plated cells were cultured in the culture plate at 37° C. in 5% […]-95% air for one day. Then, the total amount of the medium was replaced with a fresh Neurobasal™/B27/2-ME medium, and then the cells were cultured for further three days.
# The drug was added to the culture plate on Day 4 of culture as follows. The total amount of the medium was removed from the wells, and 180 μl/well of Neurobasal medium not containing 2-ME and containing 2% B-27 (Neurobasal/B27) was added thereto. A solution of the test compound in dimethyl sulfoxide (hereinafter abbreviated as DMSO) was diluted with Neurobasal/B27 so that the initial concentration was at 10-fold of the final concentration. 20 μl/well of the dilution was added to and sufficiently mixed with the medium. The final DMSO concentration was 1% or less. Only DMSO was added to the control group.
# The cells were cultured for three days after addition of the compound, and the total amount of the medium was collected. […]
row,SMILES,IC50
1,"COc1cc(/C=C2\OC[C@H]3COC[C@@H](c4ccc(F)c(F)c4)N3C2=O)ccc1-n1cnc(C)c1 [Example 109, (6R,9aR)-6-(3,4-difluorophenyl)-3-{1-[3-methoxy-4-(4-methyl-1H-imidazol-1-yl)phenyl]-(Z)-methylidene}tetrahydro[1,4]oxazino[3,4-c][1,4]oxazin-4-one]",100 nM
2,"COc1cc(/C=C2\O[C@@H](C)CN([C@H](C)c3ccnc(F)c3F)C2=O)ccc1-n1cnc(C)c1 [Example 25, (Z)-(S)-4-[(R)-1-(2,3-difluoropyridin-4-yl)ethyl]-2-[1-[3-methoxy-4-(4-methyl-1H-imidazol-1-yl)phenyl]methylidene]-6-methylmorpholin-3-one]",141 nM
3,"COc1cc(/C=C2\OC[C@H]3CCC[C@@H](c4ccc(Cl)cc4)N3C2=O)ccc1-n1cnc(C)c1 [Example 107, (6S,9aR)-6-(4-chlorophenyl)-3-{1-[3-methoxy-4-(4-methyl-1H-imidazol-1-yl)phenyl]-(Z)-methylidene}hexahydropyrido[2,1-c][1,4]oxazin-4-one]",78 nM
4,"COc1cc(/C=C2\O[C@@H](C)CN([C@@H](C)c3cc(F)c(F)c(F)c3)C2=O)ccc1-n1cnc(C)c1 [Example 37, (Z)-(6S)-2-[1-[3-methoxy-4-(4-methyl-1H-imidazol-1-yl)phenyl]methylidene]-6-methyl-4-[(S)-1-(3,4,5-trifluorophenyl)ethyl]morpholin-3-one]",20 nM
5,"Cc1cn(-c2ccc(/C=C3\O[C@@H](C)CN([C@H](c4ccc(F)c(F)c4)[C@@H](C)O)C3=O)cc2F)cn1 [Example 75, (Z)-(S)-4-[(1R,2R)-1-(3,4-difluorophenyl)-2-hydroxypropyl]-2-[1-[3-fluoro-4-(4-methyl-1H-imidazol-1-yl)phenyl]methylidene]-6-methylmorpholin-3-one]",146 nM
6,"COc1cc(/C=C2\OCCN(Cc3ccc(F)c(F)c3F)C2=O)ccc1-n1cnc(C)c1 [Example 2, (Z)-2-[1-[3-methoxy-4-(4-methyl-1H-imidazol-1-yl)phenyl]methylidene]-4-(2,3,4-trifluorobenzyl)morpholin-3-one]",187 nM
7,"COc1cc(/C=C2\O[C@@H](C)CN(C3(c4ccc(F)cc4)CC3)C2=O)ccc1-n1cnc(C)c1 [Example 39, (Z)-(6S)-4-[1-(4-fluorophenyl)cyclopropyl]-2-[1-[3-methoxy-4-(4-methyl-1H-imidazol-1-yl)phenyl]methylidene]-6-methylmorpholin-3-one]",130 nM
8,COc1cc(/C=C2\OC[C@H]3CCC[C@@H](c4cc(F)c(F)c(F)c4)N3C2=O)ccc1-n1cnc(C)c1 [Example 40],100 nM
9,"COc1cc(/C=C2\OC[C@H]3COC[C@@H](c4ccc(Cl)cc4)N3C2=O)ccc1-n1cnc(C)c1 [Example 111, (6R,9aR)-6-(4-chlorophenyl)-3-[1-[3-methoxy-4-(4-methyl-1H-imidazol-1-yl)phenyl]-(Z)-methylidene]tetrahydro[1,4]oxadino[3,4-c]oxadine-4-one]",129 nM
10,"COc1cc(/C=C2\OC(C)(C)CN([C@@H](CO)c3ccc(F)cc3)C2=O)ccc1-n1cnc(C)c1 [Example 28, (Z)-4-[(R)-1-(4-fluorophenyl)-2-hydroxyethyl]-2-[1-[3-methoxy-4-(4-methyl-1H-imidazol-1-yl)phenyl]methylidene]-6,6-dimethylmorpholin-3-one]",16 nM
11,COc1cc(/C=C2\OC[C@H]3CCC[C@@H](c4ccc(F)c(F)c4)N3C2=O)ccc1-n1cnc(C)c1 [Example 41],141 nM
12,"COc1cc(/C=C2\O[C@@H](C)CN([C@H]3CCOc4ccccc43)C2=O)ccc1-n1cnc(C)c1 [Example 13, (Z)-(S)-4-[(S)-chroman-4-yl]-2-[1-[3-methoxy-4-(4-methyl-1H-imidazol-1-yl)phenyl]methylidene]-6-methylmorpholin-3-one]",129 nM
13,"COc1cc(/C=C2\O[C@@H](C)CN([C@@H](C)c3ccc(Cl)cn3)C2=O)ccc1-n1cnc(C)c1 [Example 20, (Z)-(S)-4-[(S)-1-(5-chloropyridin-2-yl)ethyl]-2-[1-[3-methoxy-4-(4-methyl-1H-imidazol-1-yl)phenyl]methylidene]-6-methylmorpholin-3-one]",82 nM
14,"COc1cc(/C=C2\O[C@H](C)CN(Cc3cc(F)c(F)c(F)c3)C2=O)ccc1-n1cnc(C)c1 [Example 4, (Z)-(R)-2-[1-[3-methoxy-4-(4-methyl-1H-imidazol-1-yl)phenyl]methylidene]-6-methyl-4-(3,4,5-trifluorobenzyl)morpholin-3-one]",69 nM
15,"COc1cc(/C=C2\OCCN([C@H](c3ccc(F)c(F)c3)[C@@H](C)O)C2=O)ccc1-n1cnc(C)c1 [Example 31, (Z)-4-[(1R,2R)-1-(3,4-difluorophenyl)-2-hydroxypropyl]-2-[1-[3-methoxy-4-(4-methyl-1H-imidazol-1-yl)phenyl]methylidene]morpholin-3-one]",31 nM
16,"COc1cc(/C=C2\O[C@@H](C)CN(Cc3cc(F)c(F)c(F)c3)C2=O)ccc1-n1cnc(C)c1 [Example 3, (Z)-(S)-2-[1-[3-methoxy-4-(4-methyl-1H-imidazol-1-yl)phenyl]methylidene]-6-methyl-4-(3,4,5-trifluorobenzyl)morpholin-3-one]",41 nM
17,"COc1cc(/C=C2\O[C@H](C)CN([C@H]3CCOc4ccccc43)C2=O)ccc1-n1cnc(C)c1 [Example 14, (Z)-(R)-4-[(S)-chroman-4-yl]-2-[1-[3-methoxy-4-(4-methyl-1H-imidazol-1-yl)phenyl]methylidene]-6-methylmorpholin-3-one]",146 nM
18,"Cc1cn(-c2ccc(/C=C3\C[C@H](C)CN([C@H](c4cc(F)c(F)c(F)c4)[C@@H](C)O)C3=O)cc2F)cn1 [Example 84, (E)-(S)-3-{1-[3-fluoro-4-(4-methyl-1H-imidazol-1-yl)phenyl]methylidene}-1-[(1R,2R)-2-hydroxy-1-(3,4,5-trifluorophenyl)propyl]-5-methylpiperidin-2-one]",37 nM
19,"COc1cc(/C=C2\OC(C)(C)CN([C@@H](C)c3ccnc(Cl)c3)C2=O)ccc1-n1cnc(C)c1 [Example 54, (Z)-4-[(S)-1-(2-chloropyridin-4-yl)ethyl]-2-[1-[3-methoxy-4-(4-methyl-1H-imidazol-1-yl)phenyl]methylidene]-6,6-dimethylmorpholin-3-one]",74 nM
20,"COc1cc(/C=C2\OCCN([C@@H](C)c3cc(F)c(F)c(F)c3)C2=O)ccc1-n1cnc(C)c1 [Example 10, (Z)-2-[1-[3-methoxy-4-(4-methyl-1H-imidazol-1-yl)phenyl]methylidene]-4-[(S)-1-(3,4,5-trifluorophenyl)ethyl]morpholin-3-one]",84 nM
21,"COc1cc(/C=C2\O[C@@H](C)CN([C@@H](C)c3cc(F)nc(F)c3)C2=O)ccc1-n1cnc(C)c1 [Example 53, (Z)-(S)-4-[(S)-1-(2,6-difluoropyridin-4-yl)ethyl]-2-[1-[3-methoxy-4-(4-methyl-1H-imidazol-1-yl)phenyl]methylidene]-6-methylmorpholin-3-one]",40 nM
22,"COc1cc(/C=C2\O[C@@H](C)CN([C@H](c3ccc(F)c(F)c3)[C@@H](C)O)C2=O)ccc1-n1cnc(C)c1 [Example 34, (Z)-(S)-4-[(1R,2R)-1-(3,4-difluorophenyl)-2-hydroxypropyl]-2-[1-[3-methoxy-4-(4-methyl-1H-imidazol-1-yl)phenyl]methylidene]-6-methylmorpholin-3-one]",23 nM
